In data set [1] the test system is human erythrocyte. Nature of the data set: Erythrocyte hemolytic activity. In kind it is cell-based. The conditions noted are these: for Erythrocyte disrupting ability %: 1 hour at 37° C., Triton X-100 = 100%. How it is done: To compare the cytotoxicity among the peptides that are produced by the method of Example 1, erythrocyte hemolytic activity of the synthesized peptide was measured.
Specifically, human erythrocyte was diluted in physiological saline (PBS, pH 7.0) to have concentration of 8%, and clavaspirin, CSP-4, and melittin peptide were serially diluted (i.e., dilution to 1/2 concentration from higher concentration for each dilution) followed by reaction for 1 hour at 37° C. After that, the amount of hemoglobin contained in a supernatant collected by centrifuge at 1,000×g was determined by measuring the absorbance at a wavelength of 414 nm. As a control group to be used as a reference for cell disruption level, the supernatant collected by a treatment with 1% Triton X-100 (Sigma, USA) and a reaction for 1 hour at 37° C. was used for absorbance measurement. By setting the erythrocyte hemolytic activity of Triton X-100 at 100%, the hemolytic activity of the above peptides was calculated using the following mathematical equation 1.
Erythrocyte disrupting ability (hemolysis) (%)=(Absorbance A−Absorbance B)/(Absorbance C−Absorbance B)×100 [Mathematical equation 1]
(in the above equation, Absorbance A indicates the absorbance of a reaction solution treated with each peptide, in which the absorbance is measured at a wavelength of 414 nm; Absorbance B indicates the absorbance of a reaction solution treated with PBS, in which the absorbance is measured at a wavelength of 414 nm; and Absorbance C indicates the absorbance of a reaction solution treated with 1% Triton X-100, in which the absorbance is measured at a wavelength of 414 nm).

Data set [2] has as its system S. aureus MRSA 1630. The conditions noted are these: 24 hours at 37° C.
In data set [3] the test system is HaCaT cell line. Nature of the data set: Cytotoxicity in normal cell line (MTT). Format: cell-based, human. The conditions noted are these: HaCaT cell line. How it is done:
To determine the cytotoxicity of the peptide produced by the method of Example 1 in normal cell line, toxicity was measured by using human keratinocyte forming cell line (HaCaT cell line, Dr. NE. Fusenig, Heidelberg, Germany).
Specifically, HaCaT cells which have been cultured in DMEM medium containing 10% FBS (Fetal Bovine Serum) were aliquoted in a 96-well plate (3×10^3 cells/well). […] After the culture, a reaction solution containing 5 mg/ml MTT (Thiazolyl Blue Tetrazolium Bromide) dissolved in physiological saline (PBS) was added in an amount of 20 μl to each well and allowed to react for 4 hours. After that, the supernatant was removed, and, by dissolving the formed MTT crystals by adding 200 μl of DMSO, the absorbance at 560 nm was measured to determine the cell survival ability.

Data set [4] relates to skin of a hairless mouse. The data set can be described thus: Scanning electron microscopy of hairless mouse skin with induced dermatitis. Format: in vivo. The conditions noted are these: 200 μg/ml. How it is done:
Skin of a 6-week old hairless mouse was treated with 100 μl of S. aureus MRSA 0027 (1×10^8 cells/ml) to induce inflammation. Thirty minutes later, the skin was further treated with CSP-4 peptide at 100 μg/ml or 200 μg/ml. From each of a mouse having induced inflammation further treated with the peptide, a mouse treated only with the peptide, and a mouse having induced inflammation, tissues were collected and washed using physiological saline (PBS). Then, the tissues were fixed for 24 hours at room temperature by using 4% PFA (paraformaldehyde). […] According to H&E staining and immunohistochemical method, a change in tissues and onset of an anti-inflammatory cytokine or TLR2 receptor was determined. […] Remaining liquids were removed by TBST buffer such that the tissues are not detached, and a secondary antibody linked with green fluorescence (Got anti-mouse IgG (HRP) LF-SA5001-conjugated) was allowed to bind thereto. Next, each tissue was determined by using a fluorescent microscope (I×71, Olympus, Japan).
From the mouse tissues which have been treated according to the method of above Example 8, a paraffin block was prepared. […] Next, a change in the tissues was determined by using scanning electron microscopy (SEM).

Ends that are not written are not given here.

Regarding “FLRFIGSVIHGIGHLVHHIGVAL-NH2 [Clavaspirin]”, the “Erythrocyte disrupting ability %” value in data set [1] (peptide 25 μM), in data set [1] (peptide 50 μM), in data set [1] (peptide 100 μM), in data set [1] (peptide 200 μM) and in data set [1] (peptide 400 μM) was 100% throughout. In addition, in data set [2], the MIC – broadly, the least concentration at which growth counts as inhibited – was found to be 8 µM.

FLRFIGSVKHGKGHLVHHIGVAL-NH2 [CSP-4]: the “hemolysis (FIG. 1)” value in data set [1] (at 500 μg/ml) was “less than 1%”. For the same substance, in data set [1] (concentration of 200 μM or less), the hemolytic activity result is recorded as “almost no hemolytic activity”. In addition, the “Erythrocyte disrupting ability %” value in data set [1] (peptide 25 μM) turned out to be 0%; in data set [1] (peptide 50 μM), 0%; in data set [1] (peptide 100 μM), 0%; in data set [1] (peptide 200 μM) it was 1%; in data set [1] (peptide 400 μM), 10%. Moreover, the “cytotoxicity in human keratinocyte forming cell line” value in data set [3] is given as “almost no cytotoxicity”. Further, the “change in mouse skin (SEM), treated only with the peptide” value in data set [4] is “no change in mouse skin is induced”. For the same substance, the MIC in data set [2] was 8 µM.

The values above are taken from patent publication US20190038714A1, “ANTI-INFLAMMATORY COMPOSITION COMPRISING CLAVASPIRIN PEPTIDE ANALOGUE AS EFFECTIVE INGREDIENT” (INDUSTRY-ACADEMIC COOPERATION FOUNDATION, CHOSUN UNIVERSITY, priority 2015, published 2019).
